Laboratory results from patent US10519125B2, “Flavagline derivatives” (PIERRE FABRE MEDICAMENT, priority 2014, dated 2019).

Legend:
[1] = system: HCT116 line (human colon cancer cell line); assay: Antiproliferative (cytotoxic) activity on HCT116 line, ATPLite cell viability, 72 hours; assay type: cell-based; settings: HCT-116, HCT116, 72 hours after addition, ATPLite, read-out: HCT116 (EC50)
Experimental: 2.1. Antiproliferative Activity of the Compounds According to the Invention (IC50 in M)
Culture of Lines and Measurement of Cell Viability:
The HCT116 line (ATCC, CCL-247) derived from colon cancer was cultured in MEM (Minimum Essential Medium Eagle) supplemented with 2 mM L-glutamine (Sigma, G7513), 5% fetal calf serum (Sigma, F7524) and antibiotics (Sigma, A59-55). The protocol for determining cytotoxic activity consists in seeding cells on 96-well plates (Perkin Elmer, 6005668) at a density of 1500 cells per well. After 24 hours of incubation, the test compound is applied in each well, using serial dilutions in the solvent dimethylsulfoxide (DMSO) (Sigma, D8418), from 10 mM stock solutions in 100% DMSO. Each dilution was added to the cells 24 hours after seeding. Under these conditions, the final solvent concentration is 0.1% DMSO. A reading of cell proliferation was carried out 72 hours after addition of the products with the ATPLite™ kit (Perkin Elmer, 6016947) and according to the manufacturer's recommendations. The analysis of the proliferation results was carried out by comparison with conditions where only the carrier solvent (culture medium, 0.1% DMSO) was added to the cells. The dose-response curves obtained were analyzed using the PRISM 4.03 software (GraphPad Software Inc.), or by an equivalent analytical method, to determine the concentration of each compound which inhibits 50% of cell proliferation (EC50).
By way of example, the cytotoxic properties of several compounds of the invention evaluated on the HCT116 line (human colon cancer cell line) are reported in Table 1.

[2] = system: MDA-MB-231 human tumor xenograft; assay: Antitumor activity, subcutaneous MDA-MB-231 breast cancer xenografts in SCID mice; assay type: in vivo; settings: for Activity: q1d5 × 3, MDA-MB-231; for Deaths (%): q1d5 × 3, SCID mice
Experimental: Subcutaneous xenografts were established with MDA-MD-231 breast cancer cells (ATCC: HTB-26) in SCID mice (Harlan, U.K.). The animals were treated and cared after in accordance with the Guide For the Care and Use of Laboratory Animals (National Research Council, 1996) and with European Directive 86/609/EEC, under the supervision of a staff expert authorized to conduct experimental studies with laboratory animals.
All the experiments were conducted pursuant to French and local regulations (Department of Veterinary Services, Haute-Garonne, Toulouse) according to the directives of an ethics committee, based on the UKCCCR Guidelines for the Welfare of Animals in Experimental Neoplasia, as indicated above. The implantation of MDA-MB-231 human tumor fragments is carried subcutaneously in the flanks of SCID mice using a trocar and, for the study of tumor growth, the tumors are allowed to reach a median volume of 70-130 mm^3 before starting the studies.
After randomization in the treatment cages, the inhibitors were administered intravenously according to a g1d5×3 treatment scheme (5 injections per week for 3 weeks). The mice were monitored and weighed daily. The tumors were measured with a slide caliper and the tumor volumes (mm^3) were estimated using the following formula: volume=0.5 (length×width^2). Each experimental group consists of 5 individuals. The efficacy of the treatment was evaluated by analysis of the measurement of the median volume of the treated tumors compared with the median volume of the tumors receiving only carrier (control). The T/C evaluation criterion corresponds to: [(median volume of the treated group, T/median volume of the control group, C)×100]. This T/C ratio is expressed as a percentage. The optimal T/C value corresponds to the ratio which reflects the maximum inhibition of growth obtained during the study. The maximum gains or losses of weight, expressed as a percentage of the initial weight of the animals, as well as the percentage of drug-related deaths (i.e., the percentage of treated animals that died before the assessment) were used to provide an evaluation of the toxicity of the compounds. In accordance with the NCI (National Cancer Institute) criterion, a dose is deemed toxic if it induces weight loss greater than −20% relative to the initial weight of the mouse or if it induces more than 20% deaths (Corbett et al. J Exp Ther Oncol 1996, 1:95-108).

[3] = Mus musculus, MDA-MB-231, iv, read-out: Opt. T/C (%)

Compound	EC50 [1] [nM]	Activity ([2]; 0.2 mg/kg intravenously)	Deaths (%) ([2]; 0.2 mg/kg intravenously)	response vs control in vivo at 0.2 mg/kg [2, 3] [%]	Activity ([2]; 1.4 mg/kg intravenously)	Deaths (%) ([2]; 1.4 mg/kg intravenously)	response vs control in vivo at 1.4 mg/kg [2, 3] [%]	Activity ([2]; 0.5 mg/kg intravenously)	Deaths (%) ([2]; 0.5 mg/kg intravenously)	Activity ([2]; 0.7 mg/kg intravenously)	Deaths (%) ([2]; 0.7 mg/kg intravenously)	Activity ([2]; 1 mg/kg intravenously)	Deaths (%) ([2]; 1 mg/kg intravenously)	response vs control in vivo at 0.5 mg/kg [2, 3] [%]	response vs control in vivo at 0.7 mg/kg [2, 3] [%]	toxicity ([2]; above a dose of 0.7 mg/kg)	antitumor activity ([2]; below a dose of 0.7 mg/kg)
COC(=O)[C@H]1[C@@H](O)[C@@]2(O)c3c(OC)cc(OCCN)cc3O[C@@]2(c2ccc(OC)cc2)[C@@H]1c1ccccc1 (racemic) [Compound 2, rac-(1R,2R,3S,3aR,8bS)-methyl 6-(2-aminoethoxy)-1,8b-dihydroxy-8-methoxy-3a-(4-methoxyphenyl)-3-phenyl-2,3,3a,8b-tetrahydro-1H-cyclopenta[b]benzofuran-2-carboxylate]	4.03	Active	0	37													
COc1ccc([C@@]23Oc4cc(OC)cc(OC)c4[C@]2(O)[C@@H]2OC(=S)N[C@@H]2[C@H]3c2ccccc2)cc1 (racemic) [Compound 46, rac-(3aR,4R,4aR,9bS,9cR)-9b-hydroxy-7,9-dimethoxy-4a-(4-methoxyphenyl)-4-phenyl-3,3a,4,4a,9b,9c-hexahydro-2H-benzofuro[3′,2′:3,4]cyclopenta[1,2-d]oxazole-2-thione]	2.59				Active	0	39										
COC(=O)[C@H]1[C@@H](O)[C@@]2(O)c3c(OC)cc(O[C@@H]4O[C@@H]([C@H](O)CO)CO[C@H]4OC)cc3O[C@@]2(c2ccc(OC)cc2)[C@@H]1c1ccccc1 [silvestrol, reference compound]	2.46	No activity	0	92	Toxic	100		No activity	0	Toxic	40	Toxic	100	83	63	highly toxic	no antitumor activity
